In patent US20100203110A1, “Therapeutics for Cancer Using 3-Bromopyruvate and Other Selective Inhibitors of ATP Production” (The Johns Hopkins University, priority 2006, published 2010):

Key:
[1] = system: VX2 tumor glycolysis; experiment: Glycolytic activity (lactic acid formation) of VX2 tumor slices; assay type: cell-based, rabbit; details: for inhibition of VX2 tumor glycolysis (screen): 6 mM agent, 6 mM glucose, 37° C., 5 h
Protocol: Glycolysis was assayed by monitoring the formation of lactic acid following the addition of glucose to a medium containing VX2 tumor slices. Specifically, freshly excised tumors were washed 3 times at 4° C. in 20 ml Chance Hess Medium containing 6.2 mM KCl, 154 mM NaCl, and 11 mM NaPi, pH 7.4. Slices, 1 g each, were then prior incubated for 30 min in a Lab-Line incubator-shaker at 37° C. in 2 ml of the same medium while shaking at 50 rpm. Glucose was then added to give a final concentration of 6 mM, after which the incubation/shaking process was continued with 0.2 ml samples being removed every 30 min for up to 2 h. These samples were subjected to centrifugation at 14,000 rpm in an Eppendorf Centrifuge (Model 5415C). Then, aliquots of the supernatant, 0.01 ml, were removed from each sample, diluted with 0.03 ml of water and subjected to lactic acid determination using the kit supplied by Sigma. The latter contains, in addition to lactic dehydrogenase and NAD+, hydrazine, and glycine buffer, pH 9.2. The mixture was incubated for 30 min at 25° C. after which the absorbance due to formation of NADH was determined at 340 nm using a Gilford Model 260 spectrophotometer. To assess the elevation of the glycolytic activity of the VX2 tumor over that of liver tissue, parallel studies were always carried out in an identical manner with 1 g liver slices derived from the host liver. Finally, in those cases where agents were tested for their capacity to inhibit glycolysis, these were introduced into the system at the prior incubation step with all subsequent steps being run in parallel with those described above for the VX2 tumor or liver alone.
The screen included the following 9 compounds: 2-deoxyglucose (2DOG), 2-fluoro-2-deoxyglucose, 6-fluoro-6-deoxyglucose, 3-O-methyl glucose, 5-thio-D-glucose-6-phosphate, L-glucose, D-xylose, D-lyxose, and 3-bromopyruvic acid (3BrPA). The screen was conducted by incubating VX2 tumor slices in a medium containing 6 mM glucose with 6 mM of each of these agents at 37° C. for 5 h. The use of 6 mM glucose in the medium was used to mimic the maximal amount of glucose that might be in the blood in a real in vivo situation.
To compare the inhibitory effects of 2DOG and 3BrPA on the glycolytic capacity of the isolated liver implanted VX2 tumor, various concentrations of 2DOG and 3BrPA were prior incubated for 30 min at 37° C. with 1 g VX2 tumor slices and glycolysis was monitored.

[2] = system: AS-30D hepatoma cells; experiment: Killing of AS-30D hepatoma cells (trypan blue); assay type: cell-based, rat; details: 20 mM, 12 h
Protocol: AS-30D hepatoma cells grown in the peritoneal cavity of Sprague Dawley female rats (see Materials) were adapted to grow in tissue culture in Dulbecco's modified Eagle's medium containing 10% fetal bovine serum. Cells were maintained at 37° C. in a humidified atmosphere containing 5% CO2, and counted in a Neubauer chamber after trypan blue dye addition (cell/dye volume=1/1) by visualization under a Nikon inverted microscope.
The studies described above using the VX2 tumor model for liver cancer predict that 2DOG and 3BrPA may have the capacity to kill hepatoma cells expressing the high glycolytic/high hexokinase phenotype. […] Cell killing was assessed in these experiments by counting those cells in which trypan blue had entered.

Row | SMILES | inhibition of VX2 tumor glycolysis (screen) ([1]; VX2 tumor slices) | further results
1 | O=C[C@H](O)[C@@H](O)[C@H](O)CO [D-xylose] | ineffective | 
2 | O=C[C@H](F)[C@@H](O)[C@H](O)[C@H](O)CO [2-fluoro-2-deoxyglucose] | ineffective | 
3 | O=C[C@@H](O)[C@H](O)[C@@H](O)[C@@H](O)CO [L-glucose] | ineffective | 
4 | O=C[C@@H](O)[C@@H](O)[C@H](O)CO [D-lyxose] | ineffective | 
5 | O=C[C@H](O)[C@@H](O)[C@H](O)[C@H](S)COP(=O)(O)O [5-thio-D-glucose-6-phosphate] | ineffective | 
6 | O=CC[C@@H](O)[C@H](O)[C@H](O)CO [2DOG, 2-deoxyglucose] | ineffective | IC50 ([1]; Oryctolagus cuniculus, 0.5 h, prior incubated 30 min at 37° C. with 1 g VX2 tumor slices, read-out: half maximal inhibition of glycolysis): ~15 mM; concentration for maximal / complete inhibition of glycolysis ([1]; VX2 tumor slices, 2DOG maximal (70%), 3BrPA complete): ~50 mM; maximal inhibition of glycolysis ([1]; at almost 50 mM, VX2 tumor slices): 70%; cell killing [2]: about 80%
7 | O=C[C@H](O)[C@@H](O)[C@H](O)[C@H](O)CF [6-fluoro-6-deoxyglucose] | ineffective | 
8 | CO[C@@H]([C@H](O)[C@H](O)CO)[C@@H](O)C=O [3-O-methyl glucose] | ineffective | 
